Values joined by “and” are separate entries in the source; they are usually repeats but may differ in a detail not shown here. Equal entries are not always repeated. Toxic doses and inconclusive results are not listed. Rule for the calls: active = survival T/C of 150% or more; inactive = T/C below 125% in these data.
Tested on: CD2F1 mice, L1210 leukemia ip, survival T/C
Test: NCI In Vivo Anticancer Drug Screen. Data for tumor model L1210 Leukemia (intraperitoneal) in CD2F1 (CDF1) mice
Conditions: endpoint: mean survival time, higher = longer survival
How it was run: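 Antitumor effect is scored in animals hosting a serially transplanted tumor. Values compare compound-dosed animals against vehicle-only controls as a simple quotient.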

[1] = dose: 25.0 mg/kg/injection, schedule: Q01DX009 (ip), vehicle: saline with Tween-80
[2] = dose: 50.0 mg/kg/injection, schedule: Q01DX009 (ip), vehicle: saline with Tween-80
[3] = dose: 100.0 mg/kg/injection, schedule: Q01DX001 (ip), vehicle: saline with Tween-80
[4] = dose: 100.0 mg/kg/injection, schedule: Q01DX009 (ip), vehicle: saline with Tween-80
[5] = dose: 100.0 mg/kg/injection, schedule: Q04DX003 (ip), vehicle: saline with Tween-80
[6] = dose: 200.0 mg/kg/injection, schedule: Q01DX009 (ip), vehicle: saline with Tween-80
[7] = dose: 200.0 mg/kg/injection, schedule: Q04DX003 (ip), vehicle: saline with Tween-80
[8] = dose: 400.0 mg/kg/injection, schedule: Q01DX009 (ip), vehicle: saline with Tween-80
[9] = dose: 400.0 mg/kg/injection, schedule: Q04DX003 (ip), vehicle: saline with Tween-80
[10] = dose: 25.0 mg/kg/injection, schedule: Q04DX002 (ip), vehicle: saline with Tween-80
[11] = dose: 50.0 mg/kg/injection, schedule: Q04DX002 (ip), vehicle: saline with Tween-80

Measured: T/C

O=C1c2cccc(O)c2C(=O)c2c(O)cc(CO)cc21
inactive: dose: 1.25 mg/kg/injection, schedule: Q01DX009 (ip), vehicle: other 96 % of control | dose: 2.5 mg/kg/injection, schedule: Q01DX009 (ip), vehicle: other 102 % of control | dose: 5.0 mg/kg/injection, schedule: Q01DX009 (ip), vehicle: other 96 % of control | dose: 10.0 mg/kg/injection, schedule: Q01DX009 (ip), vehicle: other 102 % of control

C[C@@H]1C[C@H]2CC[C@H](O2)[C@H](C)C(=O)O[C@@H](C)C[C@@H]2CC[C@@H](O2)[C@@H](C)C(=O)O[C@H](C)C[C@H]2CC[C@H](O2)[C@H](C)C(=O)O[C@@H](C)C[C@@H]2CC[C@@H](O2)[C@@H](C)C(=O)O1
inactive: dose: 8.0 mg/kg/injection, schedule: Q01DX008 (iv), vehicle: saline 98 % of control | dose: 16.0 mg/kg/injection, schedule: Q01DX008 (iv), vehicle: saline 98 % of control | dose: 32.0 mg/kg/injection, schedule: Q01DX008 (iv), vehicle: saline 95 % of control

ClCCN(CCCl)c1ccc(CCN2CCCCC2)cc1
inactive: dose: 3.12 mg/kg/injection, schedule: Q01DX009 (ip), vehicle: Klucel (hydroxypropylcellulose) (HPC) 106 % of control | dose: 6.25 mg/kg/injection, schedule: Q01DX009 (ip), vehicle: Klucel (hydroxypropylcellulose) (HPC) 106 % of control | dose: 12.5 mg/kg/injection, schedule: Q01DX009 (ip), vehicle: Klucel (hydroxypropylcellulose) (HPC) 121 % of control and 108 % of control | dose: 25.0 mg/kg/injection, schedule: Q01DX009 (ip), vehicle: Klucel (hydroxypropylcellulose) (HPC) 118 % of control

C/C(=C\Cl)CNC(C)C
inactive: [1] 101 % of control | [2] 100 % of control | dose: 100.0 mg/kg/injection, schedule: Q01DX001 (ip), vehicle: acetone 98 % of control

O=[N+]([O-])c1cccc(Cc2nc3ccccc3nc2-c2ccccc2)c1
inactive: [3] 94 % of control | dose: 400.0 mg/kg/injection, schedule: Q01DX001 (ip), vehicle: saline with Tween-80 91 % of control

CN(Cc1cnc2nc(N)nc(N)c2n1)c1ccc(C(=O)NC(CCC(=O)OC(C)(C)C)C(=O)OC(C)(C)C)cc1 (stereo not given)
inactive: dose: 1.56 mg/kg/injection, schedule: Q01DX009 (ip), vehicle: saline with Tween-80 112 % of control | dose: 3.12 mg/kg/injection, schedule: Q01DX009 (ip), vehicle: saline with Tween-80 121 % of control | dose: 4.5 mg/kg/injection, schedule: Q01DX009 (ip), vehicle: saline with Tween-80 111 % of control

C=CC1CN2CCC1CC2C(O)c1ccnc2ccc(OC)cc12 (stereo not given) (tested in a mixture with another compound)
inactive: [2] 92 % of control and 95 % of control | dose: 100.0 mg/kg/injection, schedule: Q01DX001 (ip), vehicle: saline 95 % of control and 89 % of control | [4] 103 % of control and 98 % of control | [5] 99 % of control and 93 % of control | dose: 200.0 mg/kg/injection, schedule: Q01DX001 (ip), vehicle: saline 96 % of control | [6] 88 % of control and 95 % of control | [7] 92 % of control and 90 % of control | dose: 400.0 mg/kg/injection, schedule: Q01DX001 (ip), vehicle: saline 89 % of control

Cc1cc(C)c(C(=O)c2no[n+]([O-])c2C(=O)c2c(C)cc(C)c(Br)c2C)c(C)c1Br
inactive: [4] 97 % of control | [6] 97 % of control | [8] 98 % of control

O=C(O)c1c(Cl)cc(Cl)c(-c2c(Cl)cc(Cl)c(C(=O)O)c2Cl)c1Cl
inactive: [4] 103 % of control | [5] 92 % of control | [6] 98 % of control | [7] 98 % of control | [8] 104 % of control | [9] 100 % of control

Cc1ccc2nc(C(F)(F)F)cc(NN)c2c1
inactive: [4] 100 % of control | [5] 101 % of control | [6] 94 % of control | [7] 96 % of control | [8] 100 % of control | [9] 98 % of control

Cc1ccc(NC2=NCCS2)c(C)c1
inactive: dose: 25.0 mg/kg/injection, schedule: Q01DX001 (ip), vehicle: saline with Tween-80 106 % of control | [1] 89 % of control and 95 % of control | [10] 104 % of control and 106 % of control | dose: 25.0 mg/kg/injection, schedule: Q04DX003 (ip), vehicle: saline with Tween-80 101 % of control | dose: 50.0 mg/kg/injection, schedule: Q01DX001 (ip), vehicle: saline with Tween-80 106 % of control | [2] 97 % of control and 103 % of control | [11] 95 % of control and 110 % of control | dose: 50.0 mg/kg/injection, schedule: Q04DX003 (ip), vehicle: saline with Tween-80 98 % of control | [3] 102 % of control | [4] 103 % of control | [5] 96 % of control

NNC(=O)c1ccc(Cl)cc1Nc1cccc(Cl)c1
inactive: [5] 112 % of control | [7] 89 % of control

CCOc1ccc(OCC)c(NC(=O)Nc2cccc(Cl)c2)c1
inactive: [10] 92 % of control | [11] 92 % of control | dose: 100.0 mg/kg/injection, schedule: Q04DX002 (ip), vehicle: saline with Tween-80 88 % of control

C#CCNC1=C(C)C(=O)C2=C(C1=O)[C@H](COC(N)=O)[C@]1(OC)[C@H]3[C@@H](CN21)N3C (stereo not given in full)
inactive: dose: 3.0 mg/kg/injection, schedule: Q01DX001 (ip), vehicle: distilled water + Tween-80 97 % of control | dose: 6.0 mg/kg/injection, schedule: Q01DX001 (ip), vehicle: distilled water + Tween-80 95 % of control | dose: 12.0 mg/kg/injection, schedule: Q01DX001 (ip), vehicle: distilled water + Tween-80 101 % of control | dose: 24.0 mg/kg/injection, schedule: Q01DX001 (ip), vehicle: distilled water + Tween-80 110 % of control | dose: 48.0 mg/kg/injection, schedule: Q01DX001 (ip), vehicle: distilled water + Tween-80 118 % of control

CC(=O)/C=C\c1cc(C)ccc1O
inactive: dose: 100.0 mg/kg/injection, schedule: Q01DX001 (ip), vehicle: Klucel (hydroxypropylcellulose) (HPC) 95 % of control | dose: 200.0 mg/kg/injection, schedule: Q01DX001 (ip), vehicle: Klucel (hydroxypropylcellulose) (HPC) 103 % of control | dose: 400.0 mg/kg/injection, schedule: Q01DX001 (ip), vehicle: Klucel (hydroxypropylcellulose) (HPC) 100 % of control

CC(C)c1ccc2ccccc2c1
inactive: [5] 91 % of control | [7] 87 % of control | [9] 86 % of control

CN1CCN(Cc2nc3cccc4c3c([n+]2[O-])-c2ccccc2-4)CC1
inactive: dose: 12.5 mg/kg/injection, schedule: Q01DX009 (ip), vehicle: saline with Tween-80 91 % of control and 97 % of control and 102 % of control | [1] 96 % of control and 101 % of control and 102 % of control | [2] 94 % of control and 102 % of control and 103 % of control | [4] 117 % of control and 105 % of control and 108 % of control

CC(=O)OC1C(CO)OC(n2ccc3c(N)ncnc32)C1O (stereo not given)
inactive: dose: 5.0 mg/kg/injection, schedule: Q01DX001 (ip), vehicle: saline 104 % of control | dose: 10.0 mg/kg/injection, schedule: Q01DX001 (ip), vehicle: saline 117 % of control | dose: 20.0 mg/kg/injection, schedule: Q01DX001 (ip), vehicle: saline 117 % of control | dose: 40.0 mg/kg/injection, schedule: Q01DX001 (ip), vehicle: saline 110 % of control

O=C(O)CCC(O)CC(=O)OCc1ccccc1 (stereo not given)
inactive: dose: 100.0 mg/kg/injection, schedule: Q04DX002 (ip), vehicle: saline 107 % of control | dose: 200.0 mg/kg/injection, schedule: Q04DX002 (ip), vehicle: saline 107 % of control | dose: 400.0 mg/kg/injection, schedule: Q04DX002 (ip), vehicle: saline 96 % of control

From PubChem BioAssay AID256 (DTP/NCI, 2004)
